Activity calls are given as the source filed them. The rule behind the calls is not given here.
Key:
[1] = Acute toxicity in Swiss albino mouse assessed as toxic symptoms up to 2000 mg/kg, po administered for 14 days; format: organism-based; details: in vivo, 336 h, time 14 day
[2] = Cytotoxicity against human ECT1/E6E7 cells assessed as cell growth inhibition; format: toxicity, cell-based
Mus musculus [3] = assay: Antidiabetic activity against high fat diet-STZ-induced diabetic Swiss albino mouse model assessed as induction of beta cell regeneration in pancreas at 0.2 mmol/kg/day, po administered for 14 days by haematoxylin and eosin staining based analysis; format: functional, organism-based; details: Pancreatic beta cell, time 14.0 day
[4] = Cytotoxicity against human ECT1/E6E7 cells assessed as cell growth inhibition at 10 uM relative to control; format: toxicity, cell-based; details: read-out: GI
Mus musculus [5] = assay: Antioxidant activity against high fat diet-STZ-induced diabetic Swiss albino mouse model assessed as serum catalase level at 0.2 mmol/Kg/day, po administered for 14 days (reference value: 378.22+/- 14.45 U/ml); format: functional; details: time 14 day
[6] = target: T1, Sodium/glucose cotransporter 2 (Homo sapiens) (UniProt P31639); assay: Inhibition of human SGLT2 by liquid scintillation counter analysis relative to canagliflozin; details: concentration not given here
T1 sequence (whole entry): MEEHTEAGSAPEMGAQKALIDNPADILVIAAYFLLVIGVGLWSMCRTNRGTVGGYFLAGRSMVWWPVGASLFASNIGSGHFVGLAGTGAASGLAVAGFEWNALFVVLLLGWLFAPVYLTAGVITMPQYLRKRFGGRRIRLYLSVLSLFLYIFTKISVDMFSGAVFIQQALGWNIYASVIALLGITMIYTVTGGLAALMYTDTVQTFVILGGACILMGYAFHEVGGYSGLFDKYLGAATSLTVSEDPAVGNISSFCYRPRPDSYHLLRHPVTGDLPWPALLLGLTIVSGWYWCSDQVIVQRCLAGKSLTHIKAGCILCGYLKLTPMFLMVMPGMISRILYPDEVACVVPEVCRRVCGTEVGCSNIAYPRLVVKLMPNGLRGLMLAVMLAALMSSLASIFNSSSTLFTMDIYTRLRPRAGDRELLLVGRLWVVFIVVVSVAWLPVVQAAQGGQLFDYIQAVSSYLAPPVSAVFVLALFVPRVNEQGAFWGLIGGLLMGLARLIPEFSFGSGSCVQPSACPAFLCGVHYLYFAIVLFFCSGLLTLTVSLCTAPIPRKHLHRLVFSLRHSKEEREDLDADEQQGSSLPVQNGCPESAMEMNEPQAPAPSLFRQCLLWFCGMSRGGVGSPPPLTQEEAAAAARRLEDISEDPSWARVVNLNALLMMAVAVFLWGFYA

[7] = Cytotoxicity against human WPE1-NA22 cells assessed as cell growth inhibition; format: toxicity, cell-based
Mus musculus [8] = assay: Antioxidant activity against high fat diet-STZ-induced diabetic Swiss albino mouse model assessed as serum MDA level at 0.2 mmol/Kg/day, po administered for 14 days (reference value: 8.70+/- 0.09 nmol/ml); format: functional; details: time 14 day
Mus musculus [9] = assay: Antioxidant activity against high fat diet-STZ-induced diabetic Swiss albino mouse model assessed as serum SOD level at 0.2 mmol/Kg/day, po administered for 14 days (reference value: 273.01+/- 6.23 U/ml); format: functional; details: time 14 day
[10] = target: T2, Sodium/glucose cotransporter 2 (Homo sapiens, UniProt P31639); assay: Inhibition of human SGLT2 by liquid scintillation counter analysis
T2 sequence (P31639 whole entry): T1 sequence (whole entry)

INS1 [11] = assay: Induction of apoptosis in rat INS1 cells assessed as late apoptotic cells at 1 uM incubated for 36 hrs by Annexin V-FITC/ propidium iodide staining based flow cytometry analysis (reference value: 0.19%); format: functional
[12] = Cytotoxicity against human WPE1-NA22 cells assessed as cell growth inhibition at 10 uM relative to control; format: toxicity, cell-based; details: read-out: GI
[13] = Tmax in Swiss albino mouse plasma at 0.2 mmol/Kg, po measured after 24 hrs by HPLC analysis; format: ADME, organism-based
Mus musculus [14] = assay: Antidiabetic activity against high fat diet-STZ-induced diabetic Swiss albino mouse model assessed as insulin resistance by measuring serum TNFalpha level at 0.2 mmol/Kg/day, po administered for 14 days by ELISA method (reference value: 376.50+/-14.50 ng/ml); format: functional; details: time 14 day
[15] = Half life in Swiss albino mouse plasma at 0.2 mmol/Kg, po measured after 24 hrs by HPLC analysis; format: ADME, organism-based
[16] = Cytotoxicity against HEK293 cells assessed as cell growth inhibition; format: toxicity, cell-based; details: human
INS1 [17] = assay: Induction of apoptosis in rat INS1 cells assessed as early apoptotic cells at 1 uM incubated for 36 hrs by Annexin V-FITC/ propidium iodide staining based flow cytometry analysis (reference value: 0.34%); format: functional
Mus musculus [18] = assay: Antidiabetic activity against high fat diet-STZ-induced diabetic Swiss albino mouse model assessed as reduction in blood glucose level at 0.2 mmol/Kg/day, po administered for 14 days relative to control; format: functional; design: scale not given: the % may be the effect or the level left; details: time 14 day
Mus musculus [19] = assay: Antidiabetic activity against high fat diet-STZ-induced diabetic Swiss albino mouse model assessed as reduction in blood glucose level at 0.2 mmol/Kg/day, po administered for 14 days relative to glimepiride; format: functional; design: scale not given: the % may be the effect or the level left; details: time 14 day
[20] = Cytotoxicity against human MRC5 cells assessed as cell growth inhibition at 10 uM relative to control; format: toxicity, cell-based; details: read-out: GI
[21] = target: voltage dependent L-type calcium channel (Rattus norvegicus, UniProt P22002+P27732+Q02485); assay: Inhibition of voltage dependent L-type calcium channel in rat A7R5 cells
Dipeptidyl peptidase 4 = Dipeptidyl peptidase 4 (Homo sapiens, UniProt P27487); assay: Inhibition of DPP-4 (unknown origin) incubated for 30 mins in presence of substrate by fluorescence based analysis
Chain of Dipeptidyl peptidase 4 (P27487 whole entry): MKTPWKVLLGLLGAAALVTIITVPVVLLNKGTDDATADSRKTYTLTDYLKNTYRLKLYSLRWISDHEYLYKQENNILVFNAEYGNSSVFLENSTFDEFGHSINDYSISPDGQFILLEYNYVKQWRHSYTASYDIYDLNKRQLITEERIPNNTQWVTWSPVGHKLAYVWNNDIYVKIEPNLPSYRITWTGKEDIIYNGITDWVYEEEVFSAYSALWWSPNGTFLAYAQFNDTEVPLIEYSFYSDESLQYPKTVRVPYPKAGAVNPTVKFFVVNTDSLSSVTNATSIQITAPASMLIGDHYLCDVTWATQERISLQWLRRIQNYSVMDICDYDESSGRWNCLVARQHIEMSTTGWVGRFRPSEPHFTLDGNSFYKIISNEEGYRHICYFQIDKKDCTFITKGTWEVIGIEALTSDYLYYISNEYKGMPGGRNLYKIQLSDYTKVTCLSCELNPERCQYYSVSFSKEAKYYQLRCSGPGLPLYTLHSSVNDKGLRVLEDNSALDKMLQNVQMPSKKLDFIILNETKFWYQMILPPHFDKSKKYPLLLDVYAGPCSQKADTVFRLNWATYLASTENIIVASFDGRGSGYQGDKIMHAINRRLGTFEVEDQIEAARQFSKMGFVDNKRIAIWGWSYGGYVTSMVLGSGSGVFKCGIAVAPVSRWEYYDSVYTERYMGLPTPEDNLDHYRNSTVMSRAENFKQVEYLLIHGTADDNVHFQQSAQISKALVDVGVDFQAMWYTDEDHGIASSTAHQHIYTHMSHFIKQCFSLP

Mus musculus [22] = assay: Antidiabetic activity against high fat diet-STZ-induced diabetic Swiss albino mouse model assessed as increase in appearance of insulin immunopositive areas in pancreatic sections at 0.2 mmol/kg/day, po administered for 14 days by […] based analysis; format: functional, organism-based; details: time 14.0 day
[23] = Cytotoxicity against human THLE-2 cells assessed as cell growth inhibition; format: toxicity, cell-based
[24] = Cytotoxicity against human MCF-10F cells assessed as cell growth inhibition; format: toxicity, cell-based
INS1 [25] = assay: Induction of rat INS1 cells regeneration incubated for 24 hrs by CCK8 assay; format: functional, cell-based
Alpha amylase = target: T3, Alpha amylase (Homo sapiens, UniProt P0DUB6); assay: Inhibition of alpha amylase (unknown origin) measured after 20 to 25 mins
T3 sequence (P0DUB6 whole entry): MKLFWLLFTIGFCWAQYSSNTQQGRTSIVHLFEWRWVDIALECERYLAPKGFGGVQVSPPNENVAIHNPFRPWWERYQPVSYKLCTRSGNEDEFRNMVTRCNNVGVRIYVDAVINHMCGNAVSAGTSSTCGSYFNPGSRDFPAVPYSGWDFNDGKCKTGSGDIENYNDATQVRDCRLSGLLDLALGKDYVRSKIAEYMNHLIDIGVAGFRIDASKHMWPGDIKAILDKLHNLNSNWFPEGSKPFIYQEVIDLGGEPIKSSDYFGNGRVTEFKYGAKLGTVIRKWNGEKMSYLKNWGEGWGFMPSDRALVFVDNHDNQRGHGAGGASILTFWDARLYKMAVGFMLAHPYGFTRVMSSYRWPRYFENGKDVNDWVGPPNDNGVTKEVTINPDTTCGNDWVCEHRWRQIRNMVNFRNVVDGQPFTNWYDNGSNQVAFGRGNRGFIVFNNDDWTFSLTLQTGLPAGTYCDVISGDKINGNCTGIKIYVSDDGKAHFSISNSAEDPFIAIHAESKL

In the case of `CCOC(=O)C1=C(C)NC(C)=C(C(=O)OCC)C1c1cccc2c1OCO2`, the Activity [1] is reported as “Non-Toxic”, the GI50 [2] is reported as 3.74 µM and the Activity (Mus musculus [3]) is reported as “Active”. For the same compound, the inhibition at 10 µM [4] was 18.9%, the Activity (Mus musculus [5]) was 271.11 U/ml and the inhibition [6] was < 1%. The GI50 [7] was 24.9 µM, the Activity (Mus musculus [8]) was 8.61 nmol/mL and the Activity (Mus musculus [9]) was 236.14 U/ml. The IC50 [10] was 411 µM, the Activity (INS1 [11]) was 0.15% and the inhibition at 10 µM [12] was 26.4%. For the same compound, the Tmax [13] was 0.8 h, the Activity (Mus musculus [14]) was 415.5 ng/mL and the half-life [15] was 1.9 h. The GI50 [16] was 19.7 µM, the Activity (INS1 [17]) was 0.27% and the Activity (Mus musculus [18]) was 72.97%. For the same compound, the Activity (Mus musculus [19]) was 218%, the inhibition at 10 µM [20] was 18.6% and the IC50 [21] was 12.6 µM. For the same compound, the IC50 (Dipeptidyl peptidase 4) was 280 µM, the Activity (Mus musculus [22]) was “Active” and the GI50 [23] was 67.8 µM. For the same compound, the GI50 [24] was 171 µM, the Activity (INS1 [25]) was “Dose-Dependent Effect” and the IC50 (Alpha amylase) was 17.32 µM.

Reference: ChEMBL document CHEMBL5316297, “Mechanistic Insight of Synthesized 1,4-Dihydropyridines as an Antidiabetic Sword against Reactive Oxygen Species” (J Med Chem, 2023)
